Patent publication US20240336604A1 (THE UNITED STATES OF AMERICA, AS REPRESENTED BY THE …, priority 2021, published 2024)
pIC50: −log10 of the molar value.

What was measured:
[1] = molecular target: T1, D3 DAR (Homo sapiens, UniProt P35462); assay: Go BRET activation assay, D3 DAR; assay type: cell-based; conditions: 5 min; EC80 DA (30 nM); read-out: D3 Go BRET Imax
Method: Briefly, HEK293T cells transiently expressing either the D2 DAR or D3 DAR and GαoA-Rluc8, untagged-β1, and mVenus-γ2 were harvested with EBSS, plated in 96-well white plates at 20,000 cells/well in DPBS and incubated at RT for 45 min. […] BRET signal was determined by quantifying and calculating the ratio of the light emitted by mVenus (525 nm) over that emitted by RLuc8 (485 nm) using a PHERAstar FSX Microplate Reader (BMG Labtech).

[2] = Mouse plasma and brain pharmacokinetic study; assay type: in vivo; conditions: male CD1 mice, single 40 mg/kg i.p.
Method: Mouse Plasma and Brain Tissue Sampling: The pharmacokinetic study was conducted by CRO Pharmaron (Beijing, China). The levels of cmp 17 in mouse plasma and brain tissue samples were assessed as follows. A single IP dose (40 mg/kg) of cmp 17 was administered to male CD1 mice. The formulation consisted of NMP/Solutol/PEG-400/normal saline (v/v/v/v, 10:5:30:55). Plasma and brain samples were collected 0.5 h, 1 h, 2 h, 4 h and 8 h post dose. Brain samples were homogenized at a ratio of 1:3 with PBS (W/V, 1:3). The desired serial concentrations of working solutions were achieved by diluting stock solution of analyte with 50% acetonitrile in water solution. 10 μL of working solutions (0.5, 1, 2, 5, 10, 50, 100, 500, 1000, 10000 ng/mL) were added to 10 μL of the blank CD1 mouse plasma/brain homogenate to achieve calibration standards of 0.5-10000 ng/mL (0.5, 1, 2, 5, 10, 50, 100, 500, 1000, 10000 ng/mL) in a total volume of 20 μL. Five quality control samples at 1 ng/mL, 2 ng/mL, 5 ng/mL, 100 ng/mL and 8000 ng/mL for plasma/brain homogenate were prepared independently of those used for the calibration curves. […] After centrifugation at 4° C., 4700 rpm for 15 min, the supernatant was diluted at a ratio of 1:2 with water, and 10 μL of diluted supernatant was injected into the LC/MS/MS system (SCIEX AB API 4000) for quantitative analysis. […]

[3] = molecular target: T1, D3 DAR; assay: DiscoverX D3 DAR β-arrestin recruitment assay; assay type: cell-based; design: host or cells: CHO
Description: (§1) A D3 DAR β-arrestin cell line from DiscoverX (Fremont, CA) was used as described in the protocol below (Table 2). A CHO cell line engineered to overexpress the D3 DAR fused with a small 42-amino acid fragment of β-galactosidase called ProLink™ and a fusion protein consisting of β-arrestin and a larger N-terminal deletion mutant of β-galactosidase was used (DiscoverX catalogue number 93-0579C2). When the D3 DAR is activated by dopamine, it stimulates binding of β-arrestin to ProLink-tagged D3 DARs, and the two complementary parts of β-galactosidase form a functional enzyme. When substrate (PathHunter® Detection reagent, DiscoverX 93-0001) is added, β-galactosidase hydrolyzes it and generates a chemiluminescent signal.

[4] = molecular target: D2 DAR (Homo sapiens, UniProt P14416); assay: DiscoverX D2 DAR β-arrestin recruitment assay; assay type: cell-based; design: host or cells: CHO; conditions: EC80 concentration of DA (1 μM)
Chain of D2 DAR (P14416 whole entry, the tested form may be a part): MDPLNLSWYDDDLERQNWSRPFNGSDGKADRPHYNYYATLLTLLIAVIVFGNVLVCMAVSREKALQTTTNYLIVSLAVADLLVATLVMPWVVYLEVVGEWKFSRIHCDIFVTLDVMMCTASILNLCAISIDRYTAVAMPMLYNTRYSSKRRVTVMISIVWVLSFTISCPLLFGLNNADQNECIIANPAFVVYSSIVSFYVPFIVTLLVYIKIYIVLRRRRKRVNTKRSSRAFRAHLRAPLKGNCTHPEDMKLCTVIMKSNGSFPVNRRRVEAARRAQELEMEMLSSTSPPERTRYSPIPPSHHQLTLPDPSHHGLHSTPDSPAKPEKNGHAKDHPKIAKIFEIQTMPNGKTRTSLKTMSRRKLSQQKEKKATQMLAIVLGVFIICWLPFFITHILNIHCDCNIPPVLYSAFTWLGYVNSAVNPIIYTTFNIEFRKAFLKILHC
Description: For a secondary-screen and selectivity assays, DAR PathHunter®-arrestin GPCR cell lines from DiscoverX (Fremont, CA) were used. In the D2 DAR PathHunter®-arrestin GPCR cell line, the D2 DAR is overexpressed and fused with a small 42-amino acid fragment of β-galactosidase called ProLink™ on a CHO cellular background expressing a fusion protein of β-arrestin and a larger N-terminal deletion mutant of β-galactosidase (“enzyme acceptor”). When the D2 DAR is activated by dopamine, it stimulates binding of β-arrestin to the ProLink-tagged DAR and the two complementary parts of β-galactosidase form a functional enzyme. When substrate (PathHunter™ Detection reagent) is added, β-galactosidase hydrolyzes it and generates a chemiluminescent signal.

[5] = molecular target: T1, D3 DAR; assay: Functional curve-shift assays using the DiscoverX β-arrestin recruitment assay; assay type: cell-based; design: host or cells: CHO
Description: To further assess the mechanism of action of Cmp. […] 1 (FIGS. 4B and 4D). […] Average curves are shown (mean±SEM from at least 3 experiments each performed in triplicate). […] In contrast, increasing concentrations of Cmp.
1. FIG. 6A-C panels show concentration-response curves of dopamine in the absence or presence of increasing concentrations of compound. Cmp. […] 18 (FIG. 6A), Cmp. 5 (FIG. 6B), and Cmp. 17 (FIG. 6C), respectively. Average curves are shown (mean±SEM from at least 3 experiments, each performed in triplicate).
as §1

T1 sequence (P35462 whole entry): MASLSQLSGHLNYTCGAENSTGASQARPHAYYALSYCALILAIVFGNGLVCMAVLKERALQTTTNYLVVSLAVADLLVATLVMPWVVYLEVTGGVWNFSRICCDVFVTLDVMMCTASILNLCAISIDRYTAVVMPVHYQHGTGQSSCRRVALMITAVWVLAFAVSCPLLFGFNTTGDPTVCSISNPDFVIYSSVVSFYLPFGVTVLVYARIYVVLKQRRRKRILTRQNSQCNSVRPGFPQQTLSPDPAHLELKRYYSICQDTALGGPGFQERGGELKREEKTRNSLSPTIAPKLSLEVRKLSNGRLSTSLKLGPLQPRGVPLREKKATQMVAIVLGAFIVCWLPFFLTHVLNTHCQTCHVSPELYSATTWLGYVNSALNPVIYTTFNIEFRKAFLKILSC

## Cc1[nH]c(C)c(S(=O)(=O)Nc2ccc(C(F)(F)F)c(Cl)c2)c1C(=O)N1CCC(F)(F)C1 [Cmp. 17, N-(3-chloro-4-(trifluoromethyl)phenyl)-4-(3,3-difluoropyrrolidine-1-carbonyl)-2,5-dimethyl-1H-pyrrole-3-sulfonamide]
[1]
  Emax: > 100%
[2]
  brain penetration: brain penetrant
[2]; mouse, in vivo, ip
  half-life: ~4 h
[3]; EC80 concentration of DA (30 nM), read-out: D3 DAR IC50
  pIC50: > 5.00
[3]; Imax=maximum inhibition, EC80 DA (30 nM)
  Emax: 80 to 100%
[4]
  D2 DAR Imax: NA (“NA” indicates not active)
  pIC50: < 4.00
[5]; agonist dopamine, read-out: Functional IC50 for decreasing the Emax of dopamine
  pIC50: 5.77
[5]; versus agonist (dopamine, pramipexole)
  mode of antagonism in curve-shift assays: noncompetitive antagonism
